From publication PMC4886280 (The Journal of General Physiology, 2016)

Target: T1, P2X7 (Homo sapiens, UniProt Q99572)
T1 sequence (Q99572 1-595): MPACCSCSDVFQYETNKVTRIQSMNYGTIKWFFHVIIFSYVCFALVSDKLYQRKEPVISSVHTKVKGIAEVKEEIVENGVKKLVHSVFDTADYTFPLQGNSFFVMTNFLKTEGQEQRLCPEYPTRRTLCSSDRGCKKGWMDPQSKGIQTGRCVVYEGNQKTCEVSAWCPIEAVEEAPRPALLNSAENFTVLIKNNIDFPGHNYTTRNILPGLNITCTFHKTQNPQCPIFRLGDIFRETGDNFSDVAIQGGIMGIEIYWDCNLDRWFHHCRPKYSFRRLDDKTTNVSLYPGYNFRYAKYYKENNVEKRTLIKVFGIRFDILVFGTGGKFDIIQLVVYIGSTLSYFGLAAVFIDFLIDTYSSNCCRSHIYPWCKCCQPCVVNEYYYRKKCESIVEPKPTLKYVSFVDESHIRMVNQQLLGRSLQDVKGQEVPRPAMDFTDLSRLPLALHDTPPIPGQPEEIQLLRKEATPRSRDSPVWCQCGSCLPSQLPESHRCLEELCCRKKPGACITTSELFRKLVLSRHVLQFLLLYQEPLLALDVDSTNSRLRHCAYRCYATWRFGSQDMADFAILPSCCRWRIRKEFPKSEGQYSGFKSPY
Test: whole-cell patch clamp, ATP concentration-response in low-DIC bath
Type: cell-based

EC50: 339 ± 27 µM
SMILES: Nc1ncnc2c1ncn2[C@@H]1O[C@H](COP(=O)(O)OP(=O)(O)OP(=O)(O)O)[C@@H](O)[C@H]1O [ATP]
